In ChEMBL document CHEMBL1817566, “Halogen-substituted (C-β-D-glucopyranosyl)-hydroquinone regioisomers: synthesis, enzymatic evaluation and their binding to glycogen phosphorylase” (Bioorg Med Chem, 2011):

Molecular target: T1, Glycogen phosphorylase, muscle form (Oryctolagus cuniculus, UniProt P00489)
T1 sequence (P00489 whole entry): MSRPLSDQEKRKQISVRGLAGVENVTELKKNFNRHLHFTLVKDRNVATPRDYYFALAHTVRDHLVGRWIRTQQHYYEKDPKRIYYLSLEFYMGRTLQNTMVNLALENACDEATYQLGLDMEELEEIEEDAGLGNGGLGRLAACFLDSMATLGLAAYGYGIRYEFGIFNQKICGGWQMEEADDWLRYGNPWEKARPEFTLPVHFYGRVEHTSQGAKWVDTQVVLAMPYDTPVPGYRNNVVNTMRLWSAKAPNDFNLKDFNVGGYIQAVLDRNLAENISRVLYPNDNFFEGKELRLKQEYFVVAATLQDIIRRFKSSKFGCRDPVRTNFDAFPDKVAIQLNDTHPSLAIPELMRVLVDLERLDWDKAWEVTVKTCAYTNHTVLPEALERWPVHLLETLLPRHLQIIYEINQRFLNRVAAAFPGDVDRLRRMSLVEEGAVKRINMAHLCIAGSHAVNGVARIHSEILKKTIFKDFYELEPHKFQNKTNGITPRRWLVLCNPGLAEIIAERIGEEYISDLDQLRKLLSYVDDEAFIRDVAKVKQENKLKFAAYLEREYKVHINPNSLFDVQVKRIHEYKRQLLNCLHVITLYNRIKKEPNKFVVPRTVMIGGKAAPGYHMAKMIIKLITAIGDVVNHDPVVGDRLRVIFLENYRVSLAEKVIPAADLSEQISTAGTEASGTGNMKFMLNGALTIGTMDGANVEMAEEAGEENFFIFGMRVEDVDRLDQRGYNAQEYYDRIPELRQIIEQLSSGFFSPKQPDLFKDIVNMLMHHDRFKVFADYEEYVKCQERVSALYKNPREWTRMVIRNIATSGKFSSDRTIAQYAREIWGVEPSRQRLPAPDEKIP
Test: Competitive inhibition of rabbit muscle glycogen phosphorylase b assessed as inorganic phosphate release using alphaD glucose-1-phosphate as substrate at pH 6.8 by spectrophotometric analysis
Set-up: species or system Muscle tissue

IC50 [µM]	Ki [µM]	Structure (SMILES)
977	900	OC[C@H]1O[C@@H](c2cc(O)ccc2O)[C@H](O)[C@@H](O)[C@@H]1O
95		OC[C@H]1O[C@@H](c2cc(O)cc(Cl)c2O)[C@H](O)[C@@H](O)[C@@H]1O
	1300	O=C1C=CC(=O)C([C@@H]2O[C@H](CO)[C@@H](O)[C@H](O)[C@H]2O)=C1
